Assay results published in patent US20150337013A1, “NOVEL ANTIBACTERIAL AGENTS FOR THE TREATMENT OF GRAM POSITIVE INFECTIONS” (priority 2008, published 2015).
Values joined by “and” are separate entries in the source; they are usually repeats but may differ in a detail not shown here. Equal entries are not always repeated. Where two headings read alike, the source gives them in different places.

Key:
[1] = tested on: Enterococcus faecium EFM.384, Daptomycin resistant mutant (14-A); assay type: cell-based; conditions: MHBc with 50 mg/L calcium, 18-20 hours at 37° C.
Protocol: (§1) Compounds according to Formula I were tested for antimicrobial activity against a panel of organisms. Aerobic organisms, Staphylococcus aureus, Enterococcus faecalis and E. faecium, were tested by broth microdilution according to Clinical and Laboratory Standards Institute (CLSI) document M7-A7 (Clinical and Laboratory Standards Institute. Methods for Dilution Antimicrobial Susceptibility Tests for Bacteria that Grow Aerobically; Approved Standard—Seventh Edition. CLSI document M7-A7 [ISBN 1-56238-587-9]. Clinical and Laboratory Standards Institute, 940 West Valley Road, Suite 1400, Wayne, Pa. 19087-1898 USA, 2006) with modifications as described below. Mueller Hinton Broth (MHBc) was supplemented with 50 mg/L calcium (equivalent to human physiological levels of calcium) and assay plates were incubated 18-20 hours at 37° C. with aeration (200 rpm).
(§2) In all cases the final concentration of dimethyl sulfoxide incubated with cells is less than or equal to 1%. For minimum inhibitory concentration (MIC) calculations, 2-fold dilutions of compounds were added to wells of a microtiter plate containing 5×10^5 bacteria in a final volume of 100 μL of media. Following incubation, (18-20 hours at 37° C. with aeration at 200 rpm) growth was confirmed visually by placing plates over a viewing apparatus (stand with a mirror underneath) and then the optical density (OD600) was measured using a SpectraMax 340PC^384 plate reader. Growth was defined as turbidity that could be detected with the naked eye or achieving minimum OD600of 0.1. MIC values (in μg/mL) were defined as the lowest concentration producing no visible turbidity.

[2] = tested on: Staphylococcus aureus SAU.278, Daptomycin resistant mutant (D10); assay type: cell-based; conditions: MHBc with 50 mg/L calcium, 18-20 hours at 37° C.
Protocol: as §1, §2

[3] = tested on: Enterococcus faecalis EFS.201 (ATCC 49452); assay type: cell-based
Protocol: as §1, §2

[4] = tested on: Enterococcus faecalis EFS.312, Daptomycin resistant mutant (EFA); assay type: cell-based; conditions: MHBc with 50 mg/L calcium, 18-20 hours at 37° C.
Protocol: as §1, §2

[5] = tested on: Enterococcus faecium EFM.14 (ATCC 6569); assay type: cell-based
Protocol: as §1, §2

[6] = tested on: Staphylococcus aureus SAU.399 (ATCC 43300), Methicillin and Oxacillin Resistant; assay type: cell-based; conditions: ATCC 43300
Protocol: as §1, §2

[7] = MHBc with 50 mg/L calcium, 18-20 hours at 37° C.

CCCCCCC1CCC(c2ccc(C(=O)N[C@@H](Cc3c[nH]c4ccccc34)C(=O)N[C@H](CC(N)=O)C(=O)N[C@@H](CC(=O)O)C(=O)N[C@@H]3C(=O)NCC(=O)N[C@@H](CCCN)C(=O)N[C@@H](CC(=O)O)C(=O)N[C@H](C)C(=O)N[C@@H](CC(=O)O)C(=O)NCC(=O)N[C@H](CO)C(=O)N[C@@H]([C@H](C)CC(=O)O)C(=O)N[C@@H](CC(=O)c4ccccc4N)C(=O)O[C@@H]3C)cc2)CC1 (single isomer, unassigned) [54 isomer I]
C. diff MIC90 (Clostridium difficile): 4 µg/mL

CC(C)c1ccc(CCCC(=O)N[C@@H](Cc2c[nH]c3ccccc23)C(=O)N[C@H](CC(N)=O)C(=O)N[C@@H](CC(=O)O)C(=O)N[C@@H]2C(=O)NCC(=O)N[C@@H](CCCN)C(=O)N[C@@H](CC(=O)O)C(=O)N[C@H](C)C(=O)N[C@@H](CC(=O)O)C(=O)NCC(=O)N[C@H](CO)C(=O)N[C@@H]([C@H](C)CC(=O)O)C(=O)N[C@@H](CC(=O)c3ccccc3N)C(=O)O[C@@H]2C)cc1 [Compound 30, N-[4-(4-isopropylphenyl)butanoyl]-L-tryptophyl-D-asparaginyl-L-α-aspartyl-L-threonylglycyl-L-ornithyl-L-α-aspartyl-D-alanyl-L-α-aspartylglycyl-D-seryl-(3R)-3-methyl-L-α-glutamyl-(αS)-α,2-diamino-γ-oxobenzenebutanoic acid (13→4)-lactone]
C. diff MIC90 (Clostridium difficile): 8 µg/mL
Efm384 MIC [1]: >32 µg/mL
Sa278 MIC [2]: 32 µg/mL
Efs201 MIC ([3]; ATCC 49452): 8 µg/mL
Efs312 MIC [4]: >32 µg/mL

C[C@H](CC(=O)O)[C@@H]1NC(=O)[C@@H](CO)NC(=O)CNC(=O)[C@H](CC(=O)O)NC(=O)[C@@H](C)NC(=O)[C@H](CC(=O)O)NC(=O)[C@H](CCCN)NC(=O)CNC(=O)[C@@H](NC(=O)[C@H](CC(=O)O)NC(=O)[C@@H](CC(N)=O)NC(=O)[C@H](Cc2c[nH]c3ccccc23)NC(=O)CCCCCCc2ccccc2)[C@@H](C)OC(=O)[C@H](CC(=O)c2ccccc2N)NC1=O [Compound 47]
C. diff MIC90 (Clostridium difficile): 8 µg/mL
Efm384 MIC [1]: >32 µg/mL
Efm14 MIC ([5]; ATCC 6569): >32 µg/mL
Sa278 MIC [2]: >32 µg/mL
Sa399 MIC [6]: 16 µg/mL
Efs312 MIC [4]: >32 µg/mL

CCCC1CCC(c2ccc(C(=O)N[C@@H](Cc3c[nH]c4ccccc34)C(=O)N[C@H](CC(N)=O)C(=O)N[C@@H](CC(=O)O)C(=O)N[C@@H]3C(=O)NCC(=O)N[C@@H](CCCN)C(=O)N[C@@H](CC(=O)O)C(=O)N[C@H](C)C(=O)N[C@@H](CC(=O)O)C(=O)NCC(=O)N[C@H](CO)C(=O)N[C@@H]([C@H](C)CC(=O)O)C(=O)N[C@@H](CC(=O)c4ccccc4N)C(=O)O[C@@H]3C)cc2)CC1 (single isomer, unassigned) [53 isomer I]
C. diff MIC90 (Clostridium difficile): 1 µg/mL
Efm384 MIC [1]: 2 µg/mL and 1 µg/mL
Efm14 MIC ([5]; ATCC 6569): 0.25 µg/mL
Sa278 MIC [2]: 0.25 µg/mL and 0.5 µg/mL
Sa399 MIC [6]: 0.125 µg/mL
Efs312 MIC [4]: 2 µg/mL

CCCCCCOc1ccc(-c2ccc(C(=O)N[C@@H](Cc3c[nH]c4ccccc34)C(=O)N[C@H](CC(N)=O)C(=O)N[C@@H](CC(=O)O)C(=O)N[C@@H]3C(=O)NCC(=O)N[C@@H](CCCN)C(=O)N[C@@H](CC(=O)O)C(=O)N[C@H](C)C(=O)N[C@@H](CC(=O)O)C(=O)NCC(=O)N[C@H](CO)C(=O)N[C@@H]([C@H](C)CC(=O)O)C(=O)N[C@@H](CC(=O)c4ccccc4N)C(=O)O[C@@H]3C)cc2)cc1 [Compound 62]
C. diff MIC90 (Clostridium difficile): 2 µg/mL
Efm384 MIC [1]: 1 µg/mL
Efm14 MIC [5, 7]: 0.5 µg/mL
Sa278 MIC [2]: 0.5 µg/mL
Efs201 MIC [3, 7]: 0.25 µg/mL
Efs312 MIC [4]: 2 µg/mL and 4 µg/mL

CCCCCCCC1CCC(C(=O)N[C@@H](Cc2c[nH]c3ccccc23)C(=O)N[C@H](CC(N)=O)C(=O)N[C@@H](CC(=O)O)C(=O)N[C@@H]2C(=O)NCC(=O)N[C@@H](CCCN)C(=O)N[C@@H](CC(=O)O)C(=O)N[C@H](C)C(=O)N[C@@H](CC(=O)O)C(=O)NCC(=O)N[C@H](CO)C(=O)N[C@@H]([C@H](C)CC(=O)O)C(=O)N[C@@H](CC(=O)c3ccccc3N)C(=O)O[C@@H]2C)CC1 (some centres unmarked) [Compound 19]
C. diff MIC90 (Clostridium difficile): 0.250 µg/mL

CCCCCCC(CCCC)C(=O)N[C@@H](Cc1c[nH]c2ccccc12)C(=O)N[C@H](CC(N)=O)C(=O)N[C@@H](CC(=O)O)C(=O)N[C@@H]1C(=O)NCC(=O)N[C@@H](CCCN)C(=O)N[C@@H](CC(=O)O)C(=O)N[C@H](C)C(=O)N[C@@H](CC(=O)O)C(=O)NCC(=O)N[C@H](CO)C(=O)N[C@@H]([C@H](C)CC(=O)O)C(=O)N[C@@H](CC(=O)c2ccccc2N)C(=O)O[C@@H]1C (some centres unmarked) [Compound 8]
C. diff MIC90 (Clostridium difficile): 8 µg/mL
Efm384 MIC [1]: 32 µg/mL and >32 µg/mL
Efs312 MIC [4]: >32 µg/mL

CCCCCCCC/C=C/CC(=O)N[C@@H](Cc1c[nH]c2ccccc12)C(=O)N[C@H](CC(N)=O)C(=O)N[C@@H](CC(=O)O)C(=O)N[C@@H]1C(=O)NCC(=O)N[C@@H](CCCN)C(=O)N[C@@H](CC(=O)O)C(=O)N[C@H](C)C(=O)N[C@@H](CC(=O)O)C(=O)NCC(=O)N[C@H](CO)C(=O)N[C@@H]([C@H](C)CC(=O)O)C(=O)N[C@@H](CC(=O)c2ccccc2N)C(=O)O[C@@H]1C [Compound 4]
Efm384 MIC [1]: 8 µg/mL and 4 µg/mL
Efs312 MIC [4]: 32 µg/mL and 16 µg/mL

CCCCCCC1CCC(C(=O)N[C@@H](Cc2c[nH]c3ccccc23)C(=O)N[C@H](CC(N)=O)C(=O)N[C@@H](CC(=O)O)C(=O)N[C@@H]2C(=O)NCC(=O)N[C@@H](CCCN)C(=O)N[C@@H](CC(=O)O)C(=O)N[C@H](C)C(=O)N[C@@H](CC(=O)O)C(=O)NCC(=O)N[C@H](CO)C(=O)N[C@@H]([C@H](C)CC(=O)O)C(=O)N[C@@H](CC(=O)c3ccccc3N)C(=O)O[C@@H]2C)CC1 (some centres unmarked) [Compound 18]
C. diff MIC90 (Clostridium difficile): 0.5 µg/mL
Efm384 MIC [1]: 8 µg/mL
Efm14 MIC ([5]; ATCC 6569): 2 µg/mL
Sa278 MIC [2]: 4 µg/mL and 2 µg/mL
Sa399 MIC [6]: 1 µg/mL
Efs312 MIC [4]: 32 µg/mL and 16 µg/mL

C[C@H](CC(=O)O)[C@@H]1NC(=O)[C@@H](CO)NC(=O)CNC(=O)[C@H](CC(=O)O)NC(=O)[C@@H](C)NC(=O)[C@H](CC(=O)O)NC(=O)[C@H](CCCN)NC(=O)CNC(=O)[C@@H](NC(=O)[C@H](CC(=O)O)NC(=O)[C@@H](CC(N)=O)NC(=O)[C@H](Cc2c[nH]c3ccccc23)NC(=O)CCCCCc2ccccc2)[C@@H](C)OC(=O)[C@H](CC(=O)c2ccccc2N)NC1=O [Compound 46]
C. diff MIC90 (Clostridium difficile): 16 µg/mL
Efm384 MIC [1]: >32 µg/mL
Efm14 MIC ([5]; ATCC 6569): >32 µg/mL
Sa278 MIC [2]: >32 µg/mL
Efs201 MIC ([3]; ATCC 49452): >32 µg/mL
Efs312 MIC [4]: >32 µg/mL

CCCCCCc1ccc(C(=O)N[C@@H](Cc2c[nH]c3ccccc23)C(=O)N[C@H](CC(N)=O)C(=O)N[C@@H](CC(=O)O)C(=O)N[C@@H]2C(=O)NCC(=O)N[C@@H](CCCN)C(=O)N[C@@H](CC(=O)O)C(=O)N[C@H](C)C(=O)N[C@@H](CC(=O)O)C(=O)NCC(=O)N[C@H](CO)C(=O)N[C@@H]([C@H](C)CC(=O)O)C(=O)N[C@@H](CC(=O)c3ccccc3N)C(=O)O[C@@H]2C)cc1 [Compound 32]
Efs312 MIC [4]: >32 µg/mL and 32 µg/mL

CCCCCCSc1ccc(-c2csc(C(=O)N[C@@H](Cc3c[nH]c4ccccc34)C(=O)N[C@H](CC(N)=O)C(=O)N[C@@H](CC(=O)O)C(=O)N[C@@H]3C(=O)NCC(=O)N[C@@H](CCCN)C(=O)N[C@@H](CC(=O)O)C(=O)N[C@H](C)C(=O)N[C@@H](CC(=O)O)C(=O)NCC(=O)N[C@H](CO)C(=O)N[C@@H]([C@H](C)CC(=O)O)C(=O)N[C@@H](CC(=O)c4ccccc4N)C(=O)O[C@@H]3C)c2)cc1 [Compound 57]
C. diff MIC90 (Clostridium difficile): 8 µg/mL
Sa278 MIC [2]: 2 µg/mL and 4 µg/mL

CCCCCCOc1ccc(-c2csc(C(=O)N[C@@H](Cc3c[nH]c4ccccc34)C(=O)N[C@H](CC(N)=O)C(=O)N[C@@H](CC(=O)O)C(=O)N[C@@H]3C(=O)NCC(=O)N[C@@H](CCCN)C(=O)N[C@@H](CC(=O)O)C(=O)N[C@H](C)C(=O)N[C@@H](CC(=O)O)C(=O)NCC(=O)N[C@H](CO)C(=O)N[C@@H]([C@H](C)CC(=O)O)C(=O)N[C@@H](CC(=O)c4ccccc4N)C(=O)O[C@@H]3C)c2)cc1 [Compound 58, N-[4-(4-(hexyloxy)phenyl)thiophene-2-carbonyl]-L-tryptophyl-D-asparaginyl-L-α-aspartyl-L-threonylglycyl-L-ornithyl-L-α-aspartyl-D-alanyl-L-α-aspartylglycyl-D-seryl-(3R)-3-methyl-L-α-glutamyl-(αS)-α,2-diamino-γ-oxobenzenebutanoic acid (13→4)-lactone]
C. diff MIC90 (Clostridium difficile): 4 µg/mL
Sa278 MIC [2]: 0.5 µg/mL and 1 µg/mL
